# Source: patent publication US10766869B2, “Triazoles for the treatment of demyelinating dieases” (Vertex Pharmaceuticals Incorporated, priority 2015, dated 2020)
# Read-outs that look alike come from different tables or passages of the source.
# Test system: primary rat mixed cortical cells
# Experiment: In vitro myelination assay (MBP positive myelin strands, fold myelin pixels above background)
# Assay type: cell-based
# Settings: for fold induction at 1 µM / fold induction at 10 µM: Rattus norvegicus
# Text: In Vitro Myelination Assay
# Compounds were screened for their ability to induce myelination using a primary rat mixed cortical cell culture assay, which contains neurons, oligodendrocyte precursor cells, oligodendrocytes, astrocytes and microglia. The assay quantifies myelination by measuring myelin basic protein (MBP) immunofluorescent positive myelin strands from images taken using a Cellomics Array Scan (model Arrayscan VTI HCS Reader) or a Molecular Devices Image Xpress (model IXM XL) high content imager. The myelin strands were quantitated using a custom created myelin detection software program. Test compounds were dissolved in DMSO to make a 10 mM initial stock solution. Dilutions were made in myelination medium to obtain the final solutions for the assay and were tested in primary rat mixed cortical cells at selected doses.
# Primary rat mixed cortical cells were prepared from harvested cerebral cortices from postnatal day 1 (P1) rats (P1 Rat CD® IGS pups) were purchased from Charles River) in Complete Dissociation Medium, wherein the meninges were removed and the cortical tissue chopped with a razor blade into ˜1 mm^3 pieces. Tissue from 1-3 pups was collected and placed into 15 ml conical tubes in a total volume of 5 ml of Complete Dissociation Medium. Activated papain (3 ml) was added to each 15 ml conical tube and tissue was incubated at 37° C. for 30 minutes. After the 30 minute incubation, DNase (Sigma D4527; 75 μl of a 1 mg/ml stock) was added to each tube, followed by mechanical trituration using a 2 ml serological pipette and autopipettor to gently dissociate the tissue. Following trituration, larger tissue pieces were allowed to settle by gravity, and the supernatant containing dissociated cells was transferred to a 50 ml conical tube with 4 ml of trypsin inhibitor. Cells were pelleted by centrifugation, resuspended in myelination medium and filtered through a 40 μm filter. Cells were then seeded in 96-well plates (BD Biosciences, Black, PDL-coated, Cat. No. 356640) at 87,500-95,000 cells/well in a final volume of 200 μl of Myelination Medium in the presence or absence of compound and cultured for 14 days in a humidified 37° C. incubator with 5% CO2. Half the medium was removed and replaced with fresh medium containing 1× compound on days 6 and 10. Using a Biotek automatic plate washer (model Biomek® FXP Laboratory Automation Workstation), cells were fixed with 4% paraformaldehyde on day 14, washed with PBS and blocked in 5% normal goat serum (Vector Laboratories, S-1000) in 0.1% PBS-TritonX-100 (PBST) for 1 hour. Cells were stained with 1:500 anti-MBP (Covance, cat # SMI99) primary antibody in 1% normal goat serum in 0.1% PBST for 2 hours at room temperature followed by 2 washes with PBST. A final incubation in secondary antibody (1:1000, Invitrogen, Alexa-488 anti-mouse IgG2b) and 1:10,000 Hoechst dye in 1% normal goat serum in 0.1% PBST was performed for 2 hours at room temperature. Plates were washed with PBS and then scanned on a Cellomics Array Scan using a 10× objective (25 images per well) or the Image Xpress using a 10× objective (9 image per well). Images were analyzed using Vertex myelin detection software (described below) to quantify total MBP myelin pixels per well. Fold myelin pixels above background at two concentrations (1.0 μM and 10.0 μM) relative to baseline of no added compound are reported below in Table 4. Standard deviation for each compound concentration was calculated using all replicates and using a standard deviation formula commonly used in the art.
# One of skill in the art would recognize that for this type of primary neuronal mixed cell assay variability between different assay runs is to be expected even though the protocol is the same for each assay run. For instance, variability may be due to small differences in cell viability, cell density, age of the animals, etc.
# Vertex Myelin Detection Software: […]
# [1] = 1.0 μM compound, read-out: Fold myelin pixels above background relative to baseline of no added compound
# [2] = 10.0 μM compound, read-out: Fold myelin pixels above background relative to baseline of no added compound
# [3] = 1.0 μM compound, relative to baseline of no added compound, read-out: Fold myelin pixels above background
# [4] = 10.0 μM compound, relative to baseline of no added compound, read-out: Fold myelin pixels above background
# [5] = 1.0 μM compound, relative to baseline of no added compound, read-out: Fold myelin pixels above background, 1.0 μM
# [6] = 10.0 μM compound, relative to baseline of no added compound, read-out: Fold myelin pixels above background, 10.0 μM
smiles,measurement,setting,value
"Cc1cc(Nc2ncn(-c3cccc(F)c3)n2)c(F)c(OC2CCOC2)c1 (single isomer, unassigned) [Compound 886, N-(2-fluoro-5-methyl-3-tetrahydrofuran-3-yloxy-phenyl)-1-(3-fluorophenyl)-1,2,4-triazol-3-amine]",Fold myelin pixels above background relative to baseline of no added compound,1.0 μM compound,++ (>10 to 100x)
same,Fold myelin pixels above background relative to baseline of no added compound,10.0 μM compound,+ (>1 to 10x)
"Cc1cc(Nc2ncn(-c3cc(F)cc(F)c3)n2)cc(N2CCC[C@H]2CN2CCOCC2)c1 (single isomer, unassigned) [Compound 919]",fold induction at 1 µM,[1],10 to 100
same,fold induction at 10 µM,[2],≤ 1
"Cc1cc(Nc2ncn(-c3ccccc3)n2)c(F)c(OC2CCOC2)c1 (single isomer, unassigned) [Compound 1002, N-(2-fluoro-5-methyl-3-tetrahydrofuran-3-yloxy-phenyl)-1-phenyl-1,2,4-triazol-3-amine]",Fold myelin pixels above background relative to baseline of no added compound,1.0 μM compound,+++ (>100 to 1000x)
same,fold induction at 10 µM,[2],10 to 100
"Cc1cc(Nc2ncn(-c3ccc(F)c(F)c3)n2)c(F)c(OC2CCOC2)c1 (single isomer, unassigned) [Compound 1009, 1-(3,4-difluorophenyl)-N-(2-fluoro-5-methyl-3-tetrahydrofuran-3-yloxy-phenyl)-1,2,4-triazol-3-amine]",fold induction at 1 µM,[1],10 to 100
same,fold induction at 10 µM,[2],1 to 10
"Cc1cc(Nc2ncn(-c3cc(F)cc(F)c3)n2)c(F)c(OC2CCOC2)c1 (single isomer, unassigned) [Compound 1028, 1-(3,5-difluorophenyl)-N-(2-fluoro-5-methyl-3-tetrahydrofuran-3-yloxy-phenyl)-1,2,4-triazol-3-amine]",fold induction at 1 µM,[1],10 to 100
same,fold induction at 10 µM,[2],1 to 10
"Cc1cc(Nc2ncn(-c3ccccc3)n2)c(F)c(OC2CCOC2)c1 (single isomer, unassigned) [Compound 1052, N-(2-fluoro-5-methyl-3-tetrahydrofuran-3-yloxy-phenyl)-1-phenyl-1,2,4-triazol-3-amine]",Fold myelin pixels above background relative to baseline of no added compound,1.0 μM compound,++ (>10 to 100x)
same,Fold myelin pixels above background relative to baseline of no added compound,10.0 μM compound,++ (>10 to 100x)
"Cc1cc(Nc2ncn(-c3cccc(F)c3)n2)c(F)c(OC2CCOC2)c1 (single isomer, unassigned) [Compound 1061, N-(2-fluoro-5-methyl-3-tetrahydrofuran-3-yloxy-phenyl)-1-(3-fluorophenyl)-1,2,4-triazol-3-amine]",Fold myelin pixels above background relative to baseline of no added compound,10.0 μM compound,++ (>10 to 100x)
same,fold induction at 1 µM,[1],10 to 100
"Cc1cc(NC[C@@]2(C)CCCO2)cc(Nc2ncn(-c3cc(F)cc(F)c3)n2)c1 (stereo in doubt) [Compound 490, N1-[1-(3,5-difluorophenyl)-1,2,4-triazol-3-yl]-5-methyl-N3-[(2-methyltetrahydrofuran-2-yl)methyl]benzene-1,3-diamine]",fold induction at 1 µM,[3],10 to 100
same,fold induction at 10 µM,[4],10 to 100
"Cc1cc(Nc2ncn(-c3cc(F)cc(F)c3)n2)cc([C@@]2(C)CNC(=O)O2)c1 (stereo in doubt) [Compound 658, 5-[3-[[1-(3,5-difluorophenyl)-1,2,4-triazol-3-yl]amino]-5-methyl-phenyl]-5-methyl-oxazolidin-2-one]",fold induction at 1 µM,[3],10 to 100
same,fold induction at 10 µM,[4],≤ 1
"Cc1cc(Nc2ncn(-c3cc(F)cc(F)c3)n2)cc(N2CCN(C3COC3)CC2)n1 [Compound 1, N-[1-(3,5-difluorophenyl)-1,2,4-triazol-3-yl]-2-methyl-6-[4-(oxetan-3-yl)piperazin-1-yl]pyridin-4-amine]",fold induction at 1 µM,[5],1000 to 10000
same,fold induction at 10 µM,[6],100 to 1000
"COC1CN(c2cc(C)cc(Nc3ncn(-c4cc(F)cc(F)c4)n3)c2)C1 [Compound 2, 1-(3,5-difluorophenyl)-N-[3-(3-methoxyazetidin-1-yl)-5-methyl-phenyl]-1,2,4-triazol-3-amine]",fold induction at 1 µM,[5],100 to 1000
same,fold induction at 10 µM,[6],100 to 1000
"Fc1ccc(-n2cnc(Nc3cc(C4=CCOCC4)nc(C4CC4)c3)n2)cc1F [Compound 3, 2-cyclopropyl-N-[1-(3,4-difluorophenyl)-1,2,4-triazol-3-yl]-6-(3,6-dihydro-2H-pyran-4-yl)pyridin-4-amine]",fold induction at 1 µM,[5],100 to 1000
same,fold induction at 10 µM,[6],1000 to 10000
"OC1(C2CN(c3cc(Nc4ncn(-c5cc(F)cc(F)c5)n4)cc(C(F)(F)F)c3)CCN2)CCC1 (stereo not shown) [Compound 4, 1-[4-[3-[[1-(3,5-difluorophenyl)-1,2,4-triazol-3-yl]amino]-5-(trifluoromethyl)phenyl]piperazin-2-yl]cyclobutanol]",fold induction at 1 µM,[5],1 to 10
same,fold induction at 10 µM,[6],≤ 1
"Fc1cc(F)cc(-n2cnc(Nc3cc(Cl)cc(N4CCN(C5COC5)CC4)c3)n2)c1 [Compound 5, N-[3-chloro-5-[4-(oxetan-3-yl)piperazin-1-yl]phenyl]-1-(3,5-difluorophenyl)-1,2,4-triazol-3-amine]",fold induction at 1 µM,[5],1000 to 10000
same,fold induction at 10 µM,[6],≤ 1
Cc1cc(Nc2ncn(-c3ccccc3)n2)cc(N2CCC(C)(O)C2)c1 (stereo not shown) [Compound 6],fold induction at 1 µM,[5],100 to 1000
same,fold induction at 10 µM,[6],10 to 100
"Cc1cc(Nc2ncn(-c3ccccc3)n2)cc(N2CC3(COC3)C2)c1 [Compound 7, N-[3-methyl-5-(6-oxa-2-azaspiro[3.3]heptan-2-yl)phenyl]-1-phenyl-1,2,4-triazol-3-amine]",fold induction at 1 µM,[5],1000 to 10000
same,fold induction at 10 µM,[6],1000 to 10000
"Cc1cc(Nc2ncn(-c3cc(F)cc(F)c3)n2)cc(NC2CCOC2)c1 (stereo not shown) [Compound 8, N3-[1-(3,5-difluorophenyl)-1,2,4-triazol-3-yl]-5-methyl-N1-tetrahydrofuran-3-yl-benzene-1,3-diamine]",fold induction at 1 µM,[5],100 to 1000
same,fold induction at 10 µM,[6],1 to 10
"c1ccc(-n2cnc(Nc3cc(C4CC4)nc(N4CCC5(CC4)OCCO5)c3)n2)cc1 [Compound 9, 2-cyclopropyl-6-(1,4-dioxa-8-azaspiro[4.5]decan-8-yl)-N-(1-phenyl-1,2,4-triazol-3-yl)pyridin-4-amine]",fold induction at 1 µM,[5],1000 to 10000
same,fold induction at 10 µM,[6],100 to 1000
"c1ccc(-n2cnc(Nc3cc(C4CCOCC4)cc(C4CCOCC4)c3)n2)cc1 [Compound 10, N-[3,5-di(tetrahydropyran-4-yl)phenyl]-1-phenyl-1,2,4-triazol-3-amine]",fold induction at 1 µM,[5],1 to 10
same,fold induction at 10 µM,[6],≤ 1
"Cc1cc(Nc2ncn(-c3ccccc3)n2)cc(N2CCC3(CC2)COC3)c1 [Compound 11, N-[3-methyl-5-(2-oxa-7-azaspiro[3.5]nonan-7-yl)phenyl]-1-phenyl-1,2,4-triazol-3-amine]",fold induction at 1 µM,[5],1000 to 10000
same,fold induction at 10 µM,[6],1000 to 10000
"COC(=O)N1CCC(c2cc(C)cc(Nc3ncn(-c4ccccc4)n3)c2)CC1 [Compound 12, methyl 4-[3-methyl-5-[(1-phenyl-1,2,4-triazol-3-yl)amino]phenyl]piperidine-1-carboxylate]",fold induction at 1 µM,[5],100 to 1000
same,fold induction at 10 µM,[6],1 to 10
"CN1CCN(c2cc(Nc3ncn(-c4ccncc4)n3)cc(C(F)(F)F)c2)CC1 [Compound 13, N-[3-(4-methylpiperazin-1-yl)-5-(trifluoromethyl)phenyl]-1-(4-pyridyl)-1,2,4-triazol-3-amine]",fold induction at 1 µM,[5],100 to 1000
same,fold induction at 10 µM,[6],≤ 1
"CCc1cc(Nc2ncn(-c3ccc(F)cc3)n2)cc(N2CCN(C3COC3)CC2)c1 [Compound 14, N-[3-ethyl-5-[4-(oxetan-3-yl)piperazin-1-yl]phenyl]-1-(4-fluorophenyl)-1,2,4-triazol-3-amine]",fold induction at 1 µM,[5],1000 to 10000
same,fold induction at 10 µM,[6],≤ 1
